{
  "source": "paper PMC4428793",
  "about": "“MK571 inhibits phase-2 conjugation of flavonols by Caco-2/TC7 cells, but does not specifically inhibit their apical efflux^” (Biochemical Pharmacology, 2015)",
  "key": {"[1]": {"system": "Bcrp1", "parameters": "method as in PMID 15749994", "conditions": "Mrp2 deficient rats; ref [33]; cited from earlier work"}, "[2]": {"system": "Caco-2 cells", "conditions": "cited from earlier work"}, "[3]": {"system": "Caco-2/TC7 cells", "experiment": "Flavonol metabolism and transport experiments on Caco-2/TC7 transwell monolayers, effect of MK571", "assay_type": "cell-based, human", "method": "Cells were grown at 37 °C in a humidified incubator with 5% CO2 in Dulbecco Modified Eagle's Medium (DMEM) containing 1% non-essential amino acids, 1% L-glutamine, 100 IU/mL penicillin and 100 μg/mL streptomycin, 1 g/L glucose, and supplemented with 20% (v/v) heat inactivated fetal calf serum. Cells were passaged at 80% confluency, and seeded at 2–4 × 10^4 cells per cm^2 on 10 cm dishes (growing area 75 cm^2) or 12-well transwells (growing area of 1.1 cm^2). […] Toxicity of MK571 on Caco-2/TC7 cell monolayers was determined through comparison of pre- and post-loading TEER values of wells incubated with MK571.\nFlavonol stocks (quercetin, kaempferol, galangin; 10 mM) were prepared in dimethylsulfoxide (DMSO) and stored at −20 °C. MK571 was dissolved in dimethyl sulfoxide (10 mM final concentration) and stored at −20 °C. Prior to the metabolism or transport experiments, cells were aspirated of media and washed three times with phosphate buffered saline (PBS). To foetal calf serum and phenol red-free DMEM was added ascorbic acid at a final concentration of 100 μM as well as MK571 at the desired concentration. For metabolism experiments, 10 mL of this media was added to the cells in 10 cm dishes. For transport experiments using transwells, 0.6 mL of this media was added to the apical compartment of the transwell and 1 mL was added to the basolateral compartment. Control wells received an equivalent dose of dimethyl sulfoxide as the treatment wells. Cells were incubated at 37 °C for 30 min, after which flavonols dissolved in dimethyl sulfoxide (kaempferol, galangin or quercetin) were added to the media of treatment wells at a final concentration of 40 or 100 μM, while control wells were treated with the dimethyl sulfoxide vehicle alone. Concentrations of quercetin were increased to 100 μM because instability of quercetin in media necessitated higher initial loading to maintain adequate cellular and media concentrations for uptake and metabolism of the flavonol. Control and treatment cells were incubated at 37 °C for the periods indicated in the results.\nFollowing the required incubation period, media and cell fractions were harvested and analysed to identify and quantify flavonol metabolites using HPLC. Media was removed from the apical (0.5 mL) and basolateral (0.5 mL) compartments of transwells and added to 25 μL trifluoroacetic acid and 25 μL HPLC grade acetonitrile. Media from 10 cm dishes (1 mL) was removed and added to 50 μL trifluoroacetic acid and 25 μL HPLC grade acetonitrile. Cells were washed three times with cold (room temperature) phosphate buffered saline solution and scraped free of the dish surface. For transwells, 100 μL MilliQ water was added to the cells and the resulting cell suspension pipetted into 10 μL trifluoroacetic acid and 10 μL HPLC grade acetonitrile. For 10 cm dishes, the resulting cell suspension was pipetted into 25 μL trifluoroacetic acid and 25 μL HPLC grade acetonitrile. Samples were either analysed immediately or otherwise stored at −20 °C prior to HPLC analysis. Flavonols were stable during frozen storage and thawing (no significant losses up to 26 weeks).\nMedia samples were thawed where necessary and then mixed using a vortex mixer, centrifuged for 10 min at 14,000 × g using a micro centrifuge, and the supernatant removed and placed in an HPLC vial for analysis. Cell samples were vortex-mixed and then ultra-sonicated (sonic water bath) for 10 min, vortex mixed again and then centrifuged for 10 min at 14,000 × g using a micro-centrifuge, before removal of supernatant for HPLC analysis. Identification and quantification of individual flavonol metabolites was carried out using liquid chromatography–mass spectrometry and nuclear magnetic resonance analyses, as described previously. […]"}, "[4]": {"system": "Caco-2 cell culture model", "parameters": "method as in PMID 12893842", "conditions": "50 μM MK571; ref [39]; cited from earlier work"}, "[5]": {"system": "UDP-β-D-glucuronosyl transferase (UDP-GT) activity in the Caco2 cell-free extracts", "experiment": "Enzyme kinetics of kaempferol glucuronidation in Caco2 cell-free extracts (Km, Vmax, Ki)", "assay_type": "biochemical, human", "conditions": "substrate kaempferol 5–150 μM; estimated from reciprocal plots; read-out: Ki for inhibition of the synthesis of K-4′-O-GlcA", "method": "Cells were grown until 21 days post confluent and washed and aspirated as described previously. The cells were then scraped into tubes and these tubes kept on ice at all times throughout the preparation procedure. Homogenisation buffer comprised of sodium phosphate buffer (50 mM adjusted to pH 6.5; 20 mL), two mini protease inhibitor cocktail tablets containing EDTA and perfabloc, dithiothreitol (30.8 mg), alamethacin (20 μL of a 22 μg/mL) solution from T. viride; and MgCl2 (3.5 mg). Cell-free homogenates were prepared by mixing cells with homogenisation buffer (50:50, vol/vol) and vortexing with glass beads in an eppendorf tube three times for 1 min over a 10 min period. […] The supernatant was removed and analysed via HPLC.\nEstimates of initial rates (v) of formation of flavonol conjugates by UDP-β-D-glucuronosyl transferase (UDP-GT) activity in the Caco2 cell-free extracts were calculated for each concentration of S (S = kaempferol; [S] range 5–150 μM). […] The type of inhibition was determined by plotting 1/v versus 1/S for each of the inhibitor (MK571) concentrations tested and observing the location of the intersection of the lines, which also gave estimated values for Km and Vmax. […]"}, "[6]": {"conditions": "50 μM MK571, Caco-2 cells, ref Walle et al. [28]"}, "[7]": {"conditions": "50 μM MK571, vs vehicle-only control, transwell monolayers"}, "[8]": {"conditions": "galangin 40 μM + 50 μM MK571 apical, 60 min"}, "[9]": {"conditions": "in the presence of MK571 (Table 1: 50 μM)"}, "[10]": {"conditions": "kaempferol 40 μM + 50 μM MK571 apical, 60 min"}, "[11]": {"conditions": "kaempferol 40 μM + 100 μM MK571 apical, 60 min"}, "[12]": {"conditions": "quercetin 100 μM + 50 μM MK571 apical, 60 min"}},
  "note": "Values joined by “and” are separate entries in the source; they are usually repeats but may differ in a detail not shown here. Equal entries are not always repeated.",
  "data": [
    {"smiles": "COc1ccc2c3c([nH]c2c1)[C@H](C=C(C)C)N1C(=O)[C@@H]2CCCN2C(=O)[C@@H]1C3", "note": "[FTC]", "values": [
      {"measurement": "Total plasma quercetin and isorhamnetin concentrations", "setting": "[1]", "result": "twice that of controls"}
    ]},
    {"smiles": "CN(C)C(=O)CCSC(SCCC(=O)O)c1cccc(/C=C/c2ccc3ccc(Cl)cc3n2)c1", "note": "(stereo not shown) [MK571]", "values": [
      {"measurement": "Inhibition of chrysin glucuronide efflux", "setting": "[2]; [6]", "result": 71, "unit": "%"},
      {"measurement": "Inhibition of chrysin sulphate efflux", "setting": "[2]; [6]", "result": 25, "unit": "%"},
      {"measurement": "Efflux of methylated sulphate conjugates and sulphate conjugates of epigallocatechin", "setting": "[2]; 50 μM, ref [35]", "result": "substantially inhibited"},
      {"measurement": "Inhibition of apical efflux of epicatechin sulphate conjugates", "setting": "[2]; ref [36]", "result": "> 50", "unit": "%"},
      {"measurement": "Increase in galangin aglycone concentration of the cellular extract", "setting": "[3]; 50 μM MK571", "result": "+180%"},
      {"measurement": "Increase in kaempferol aglycone concentration of the cellular extract", "setting": "[3]; 50 μM MK571", "result": "+182%"},
      {"measurement": "Increase in quercetin aglycone concentration of the cellular extract", "setting": "[3]; 50 μM MK571", "result": "+119%"},
      {"measurement": "Reduction in production of kaempferol sulphates", "setting": "[3]; 50 μM MK571", "result": 50.8, "unit": "%"},
      {"measurement": "Reduction in production of total kaempferol glucuronides", "setting": "[3]; 50 μM MK571", "result": 52.3, "unit": "%"},
      {"measurement": "Reduction in apical efflux of kaempferol conjugates", "setting": "[3]; 50 μM MK571, vs no MK571, transwell monolayers", "result": "44% and 43.2%"},
      {"measurement": "Reduction in apical efflux of galangin conjugates", "setting": "[3]; [7]", "result": "38% and 38.5%"},
      {"measurement": "Reduction in apical efflux of quercetin conjugates", "setting": "[3]; [7]", "result": 37.1, "unit": "%"},
      {"measurement": "Increase in kaempferol aglycone concentration of the cellular extract", "setting": "[3]; 100 μM MK571", "result": "+229%"},
      {"measurement": "Reduction in production of kaempferol sulphates", "setting": "[3]; 100 μM MK571", "result": 88.4, "unit": "%"},
      {"measurement": "Reduction in production of total kaempferol glucuronides", "setting": "[3]; 100 μM MK571", "result": 67.2, "unit": "%"},
      {"measurement": "Apical galangin conjugates, change vs no MK571", "setting": "[3]; [8]", "result": "−38.5", "unit": "%"},
      {"measurement": "Apical galangin conjugates, rate", "setting": "[3]; [8]", "result": 1.789, "unit": "nmol/h"},
      {"measurement": "Basolateral galangin conjugates, change vs no MK571", "setting": "[3]; [8]", "result": "−43.6", "unit": "%"},
      {"measurement": "Basolateral galangin conjugates, rate", "setting": "[3]; [8]", "result": 2.279, "unit": "nmol/h"},
      {"measurement": "Cellular galangin conjugates, change vs no MK571", "setting": "[3]; [8]", "result": "−28.7", "unit": "%"},
      {"measurement": "Cellular galangin conjugates, rate", "setting": "[3]; [8]", "result": 0.004, "unit": "nmol/h"},
      {"measurement": "Total galangin conjugates, change vs no MK571", "setting": "[3]; [8]", "result": "−41.4", "unit": "%"},
      {"measurement": "Total galangin conjugates, rate", "setting": "[3]; [8]", "result": 4.072, "unit": "nmol/h"},
      {"measurement": "Decrease in galangin glucuronides", "setting": "[3]; [9]", "result": 42.8, "unit": "%"},
      {"measurement": "Decrease in galangin sulphates", "setting": "[3]; [9]", "result": 37.0, "unit": "%"},
      {"measurement": "Decrease in quercetin glucuronides", "setting": "[3]; [9]", "result": 56.5, "unit": "%"},
      {"measurement": "Decrease in quercetin sulphates", "setting": "[3]; [9]", "result": 39.6, "unit": "%"},
      {"measurement": "Apical kaempferol conjugates, change vs no MK571", "setting": "[3]; [10]", "result": "−43.2", "unit": "%"},
      {"measurement": "Apical kaempferol conjugates, rate", "setting": "[3]; [10]", "result": 1.196, "unit": "nmol/h"},
      {"measurement": "Basolateral kaempferol conjugates, change vs no MK571", "setting": "[3]; [10]", "result": "−56.7", "unit": "%"},
      {"measurement": "Basolateral kaempferol conjugates, rate", "setting": "[3]; [10]", "result": 1.484, "unit": "nmol/h"},
      {"measurement": "Cellular kaempferol conjugates, change vs no MK571", "setting": "[3]; [10]", "result": "−20.0", "unit": "%"},
      {"measurement": "Cellular kaempferol conjugates, rate", "setting": "[3]; [10]", "result": 0.004, "unit": "nmol/h"},
      {"measurement": "Total kaempferol conjugates, change vs no MK571", "setting": "[3]; [10]", "result": "−51.5", "unit": "%"},
      {"measurement": "Total kaempferol conjugates, rate", "setting": "[3]; [10]", "result": 2.684, "unit": "nmol/h"},
      {"measurement": "Apical kaempferol conjugates, change vs no MK571", "setting": "[3]; [11]", "result": "−81.9", "unit": "%"},
      {"measurement": "Apical kaempferol conjugates, rate", "setting": "[3]; [11]", "result": 0.382, "unit": "nmol/h"},
      {"measurement": "Basolateral kaempferol conjugates, change vs no MK571", "setting": "[3]; [11]", "result": "−69.0", "unit": "%"},
      {"measurement": "Basolateral kaempferol conjugates, rate", "setting": "[3]; [11]", "result": 1.062, "unit": "nmol/h"},
      {"measurement": "Cellular kaempferol conjugates, change vs no MK571", "setting": "[3]; [11]", "result": "−24.2", "unit": "%"},
      {"measurement": "Cellular kaempferol conjugates, rate", "setting": "[3]; [11]", "result": 0.003, "unit": "nmol/h"},
      {"measurement": "Total kaempferol conjugates, change vs no MK571", "setting": "[3]; [11]", "result": "−73.9", "unit": "%"},
      {"measurement": "Total kaempferol conjugates, rate", "setting": "[3]; [11]", "result": 1.447, "unit": "nmol/h"},
      {"measurement": "Apical quercetin conjugates, change vs no MK571", "setting": "[3]; [12]", "result": "−37.1", "unit": "%"},
      {"measurement": "Apical quercetin conjugates, rate", "setting": "[3]; [12]", "result": 0.706, "unit": "nmol/h"},
      {"measurement": "Basolateral quercetin conjugates, change vs no MK571", "setting": "[3]; [12]", "result": "−56.3", "unit": "%"},
      {"measurement": "Basolateral quercetin conjugates, rate", "setting": "[3]; [12]", "result": 1.275, "unit": "nmol/h"},
      {"measurement": "Cellular quercetin conjugates, change vs no MK571", "setting": "[3]; [12]", "result": "−2.72", "unit": "%"},
      {"measurement": "Cellular quercetin conjugates, rate", "setting": "[3]; [12]", "result": 0.004, "unit": "nmol/h"},
      {"measurement": "Total quercetin conjugates, change vs no MK571", "setting": "[3]; [12]", "result": "−50.9", "unit": "%"},
      {"measurement": "Total quercetin conjugates, rate", "setting": "[3]; [12]", "result": 1.985, "unit": "nmol/h"},
      {"measurement": "Apigenin sulfation", "setting": "[4]", "result": "not inhibited"},
      {"measurement": "Inhibition of apigenin glucuronidation", "setting": "[4]", "result": "30–40%"},
      {"measurement": "Ki", "setting": "[5]", "result": 19.7, "unit": "µM"}
    ]}
  ]
}
